Reference: ChEMBL document CHEMBL1128948, “Novel thrombin inhibitors that are based on a macrocyclic tripeptide motif” (Bioorg Med Chem Lett, 1996)

Experiments:
Prothrombin [1] = target: T1, Prothrombin (Homo sapiens, UniProt P00734); assay: Inhibition of human thrombin
Serine protease 1 = target: T2, Serine protease 1 (Bos taurus, UniProt P00760); assay: Inhibition of bovine trypsin
T2 sequence (P00760 whole entry): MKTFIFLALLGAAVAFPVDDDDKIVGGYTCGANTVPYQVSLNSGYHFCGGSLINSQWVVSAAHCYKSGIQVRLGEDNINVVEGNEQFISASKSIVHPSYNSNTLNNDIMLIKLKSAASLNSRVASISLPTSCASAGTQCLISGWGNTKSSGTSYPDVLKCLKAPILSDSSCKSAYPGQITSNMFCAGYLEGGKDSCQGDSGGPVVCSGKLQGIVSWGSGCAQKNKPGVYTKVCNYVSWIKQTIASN

Prothrombin [2] = target: T1, Prothrombin; assay: Compound was evaluated for inhibition of human thrombin at a concentration of 50 uM; Not active

Row | Structure (SMILES) | Ki (Prothrombin [1]) [nM] | Ki (Serine protease 1) [nM] | other results
1 | N=C(N)NCCC[C@H]1NC(=O)[C@H]2CCCN2C(=O)[C@H](NC=O)CNC(=O)/C=C\[C@@H](Cc2ccc(O)cc2)NC(=O)[C@H](Cc2ccccc2)NC(=O)C1=O [MACROCYCLIC TRIPEPTIDE MOTIF] | 4.1 | – | –
2 | N=C(N)NCCC[C@H]1NC(=O)[C@H]2CCCN2C(=O)[C@H](Cc2ccccc2)NC(=O)CCCCCNC(=O)[C@H](CC(c2ccccc2)c2ccccc2)NC(=O)C1=O (single isomer, unassigned) | 5.3 | – | –
3 | N=C(N)NCCC[C@H]1NC(=O)[C@H]2CCCN2C(=O)[C@H](Cc2ccccc2)NC(=O)CCCCCNC(=O)[C@H](CCc2ccccc2)NC(=O)C1=O (single isomer, unassigned) | 3.1 | – | –
4 | N=C(N)NCCC[C@@H]1NC(=O)[C@@H]2CCCN2C(=O)[C@@H](c2ccccc2)NC(=O)CCCCCCCNC(=O)C1=O (single isomer, unassigned) | – | 11 | –
5 | N=C(N)NCCC[C@@H]1NC(=O)[C@@H]2CCCN2C(=O)[C@@H](NC=O)CNC(=O)/C=C\[C@@H](Cc2ccc(O)cc2)NC(=O)[C@@H](Cc2ccccc2)NC(=O)C1=O [MACROCYCLIC TRIPEPTIDE MOTIF] | – | 1 | –
6 | N=C(N)NCCC[C@H]1NC(=O)[C@H]2CCCN2C(=O)[C@H](CCc2ccccc2)NC(=O)CCCCCCCNC(=O)C1O (stereo not given in full) | – | – | Ki (Prothrombin [2]): Not Active
7 | COC1C[C@@H]2C(=O)N[C@H](CCCN=C(N)N)C(=O)C(=O)NCCCCCCCC(=O)N[C@@H](Cc3ccccc3)C(=O)N2C1 (stereo not given in full) | 159 | 13 | –
8 | N=C(N)NCCC[C@@H]1NC(=O)[C@@H]2CCCN2C(=O)[C@@H](Cc2ccccc2)NC(=O)CCCCCNC(=O)[C@@H](CCc2ccccc2)NC(=O)C1=O (single isomer, unassigned) | – | 5.2 | –
9 | N=C(N)NCCC[C@H]1NC(=O)[C@H]2CCCN2C(=O)[C@H](Cc2ccccc2)NC(=O)CCCCCCCCCNC(=O)C1=O (single isomer, unassigned) | 9.9 | – | –
10 | N=C(N)NCCC[C@@H]1NC(=O)[C@@H]2CCCN2C(=O)[C@@H](Cc2ccccc2)NC(=O)CCCCCNC(=O)[C@@H](CC(c2ccccc2)c2ccccc2)NC(=O)C1=O (single isomer, unassigned) | – | 2.5 | –
11 | N=C(N)NCCC[C@H]1NC(=O)[C@H]2CCCN2C(=O)[C@H](CCc2ccccc2)NC(=O)CCCCCCCNC(=O)C1=O (single isomer, unassigned) | 20 | – | –
12 | N=C(N)NCCC[C@H]1NC(=O)[C@H]2CCCN2C(=O)[C@H](Cc2ccccc2)NC(=O)CCCCCCCNC(=O)C1=O (single isomer, unassigned) | 24 | – | –

Further lines, with some results ahead:

Row | Ki (Prothrombin [1]) [nM] | Ki (Serine protease 1) [nM] | Structure (SMILES) | other results
13 | – | 710 | N=C(N)NCCC[C@@H]1NC(=O)[C@@H]2CCCN2C(=O)[C@@H](Cc2ccccc2)NC(=O)CCCCCNC(=O)C1=O (single isomer, unassigned) | –
14 | – | 10 | N=C(N)NCCC[C@@H]1NC(=O)[C@@H]2CCCN2C(=O)[C@@H](Cc2ccccc2)NC(=O)CCCCCCCNC(=O)C1=O (single isomer, unassigned) | –
15 | – | 14 | N=C(N)NCCC[C@@H]1NC(=O)[C@@H]2CCCN2C(=O)[C@@H](CCc2ccccc2)NC(=O)CCCCCCCNC(=O)C1=O (single isomer, unassigned) | –
16 | 473 | – | N=C(N)NCCC[C@H]1NC(=O)[C@H]2CCCN2C(=O)[C@H](Cc2ccccc2)NC(=O)CCCCCNC(=O)C1=O (single isomer, unassigned) | –
17 | 1800 | – | N=C(N)NCCC[C@H]1NC(=O)[C@H]2CCCN2C(=O)[C@H](Cc2ccccc2)NC(=O)CCCCCCNC(=O)C1=O (single isomer, unassigned) | –
18 | – | 25 | N=C(N)NCCC[C@@H]1NC(=O)[C@@H]2CCCN2C(=O)[C@@H](Cc2ccccc2)NC(=O)CCCCCCCCCCNC(=O)C1=O (single isomer, unassigned) | –
19 | – | 66 | N=C(N)NCCC[C@@H]1NC(=O)[C@@H]2CCCCN2C(=O)[C@@H](Cc2ccccc2)NC(=O)CCCCCCCNC(=O)C1=O (single isomer, unassigned) | –
20 | 163 | – | N=C(N)NCCC[C@H]1NC(=O)[C@H]2CCCN2C(=O)[C@H](c2ccccc2)NC(=O)CCCCCCCNC(=O)C1=O (single isomer, unassigned) | –
21 | 86 | – | N=C(N)NCCC[C@H]1NC(=O)[C@H]2CCCCN2C(=O)[C@H](Cc2ccccc2)NC(=O)CCCCCCCNC(=O)C1=O (single isomer, unassigned) | –
22 | – | 280 | N=C(N)NCCC[C@@H]1NC(=O)[C@@H]2CCCN2C(=O)[C@@H](Cc2ccccc2)NC(=O)CCCCCCNC(=O)C1=O (single isomer, unassigned) | –
23 | 15 | – | N=C(N)NCCC[C@H]1NC(=O)[C@H]2CCCN2C(=O)[C@H](Cc2ccccc2)NC(=O)CCCCCCCCCCNC(=O)C1=O (single isomer, unassigned) | –
24 | – | 2.1 | N=C(N)NCCC[C@@H]1NC(=O)[C@@H]2CCCN2C(=O)[C@@H](Cc2ccccc2)NC(=O)CCCCCCCCCNC(=O)C1=O (single isomer, unassigned) | –
